Laboratory results published in patent US8247211B2, “Glycopeptide antibiotics” (American Cyanamid Company, priority 2001, dated 2012).

Key:
Staphylococcus sp. = assay: In vitro antibacterial evaluation: minimum inhibitory concentration (MIC), broth dilution method; format: cell-based; details: broth dilution, 18 hours at 35° C.; for MIC Staphylococcus aureus-SMITH (GC 4543): strain SMITH GC 4543
How it was run: (§1)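 Following NCCLS approved standard M7-A2, compounds are serially diluted from 64 to 0.06 μg/mL in Muller-Hinton II […] and inoculated at 5×10^5 CFU/mL; the MIC is the minimum concentration at which growth is inhibited.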

Enterococcus sp. = assay: as above; format: cell-based
How it was run: as §1

Escherichia coli [1] = assay: as above; format: cell-based; details: strain GC 4560
How it was run: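 NCCLS M7-A2 broth dilution with Mueller-Hinton II, testing 64-0.06 μg/mL antibiotic against 5×10^5 CFU/mL inocula. Test strains include recent methicillin-, penicillin- or vancomycin-resistant clinical isolates. MIC is the lowest concentration preventing growth.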

[2] = Anatomic pathology (heart and kidney histopathology) in mice; format: in vivo, CD-1 mice; details: 20 mg/kg intravenously daily for 9 days, microscopic histopathology on day 10
Description: 20-day-old CD-1 mice were divided into a vehicle control group (5 mice) and a treatment group (5 mice). Samples of glycopeptide antibiotics were administered at 20 mg/kg intravenously daily for 9 days.
Samples of tissues from necropsied mice were formalin-fixed, paraffin-embedded, sectioned, stained with hematoxylin and eosin, and examined microscopically. Histopathologic findings were recorded. These findings were subjectively graded on a scale corresponding to slight, mild, moderate, marked and severe as compared to untreated controls.

Streptococcus sp. = assay: In vitro antibacterial evaluation: minimum inhibitory concentration (MIC), broth dilution method; format: cell-based; details: broth dilution, 18 hours at 35° C.
How it was run: as §1

Escherichia coli [3] = assay: as above; format: cell-based; details: broth dilution, 18 hours at 35° C.
[4] = broth dilution, 18 hours at 35° C.

CC(c1ccccc1)C1NC(=O)CNC(=O)C(CO)NC(=O)C(C(O)C2CNC(=NCc3ccccc3)N2C2OC(CO)C(O)C(O)C2O)NC(=O)C(C(O)C2CNC(=N)N2)NC(=O)C(Cc2ccc(OC3OC(CO)C(OC4OC5COC6(OC5C(O)C4O)C4CC5CC(C4)CC6C5)C(O)C3O)cc2)NC1=O (stereo not drawn) [Example 76, Cyclo[glycyl-β-methylphenylalanyl-O-[4-O-[4,6-O-(2-adamantylidene)hexopyranosyl]hexopyranosyl]tyrosyl-3-(2-iminoimidazolidin-4-yl)seryl-3-[2-(benzylimino)-3-hexopyranosylimidazolidin-4-yl]serylseryl]]
2 to 4 µg/mL: MIC Coagulase Negative Staphylococcus (GC 4547) (Staphylococcus sp.) | MIC Coagulase Negative Staphylococcus (GC 4548) (Staphylococcus sp.) | MIC Coagulase Negative Staphylococcus (GC 4549) (Staphylococcus sp.) | MIC Staphylococcus aureus (GC 4541) (Staphylococcus sp.) | MIC Staphylococcus haemolyticus (GC 4546) (Staphylococcus sp.) | MIC Escherichia coli (GC 4560) (Escherichia coli [1])
1 to 2 µg/mL: MIC Enterococcus faecium (GC 4557) (Enterococcus sp.; strain GC 4557)
0.5 to 2 µg/mL: MIC Coagulase Negative Staphylococcus (GC 6257) (Staphylococcus sp.)
4 to 8 µg/mL: MIC Staphylococcus aureus (GC 1131) (Staphylococcus sp.) | MIC Staphylococcus aureus (GC 4544) (Staphylococcus sp.) | MIC Enterococcus faecalis (GC 4553) (Enterococcus sp.; strain GC 4553)
2 to 8 µg/mL: MIC Coagulase Negative Staphylococcus (GC 4551) (Staphylococcus sp.) | MIC Staphylococcus aureus (ATCC 29213) (Staphylococcus sp.) | MIC Staphylococcus aureus (GC 3051) (Staphylococcus sp.) | MIC Staphylococcus aureus (GC 3053) (Staphylococcus sp.) | MIC Staphylococcus aureus (GC 4542) (Staphylococcus sp.) | MIC Staphylococcus aureus (GC 4545) (Staphylococcus sp.) | MIC Enterococcus faecium (GC 2243) (Enterococcus sp.; strain GC 2243) | MIC Enterococcus avium (GC 4558) (Enterococcus sp.; strain GC 4558)
1 to 4 µg/mL: MIC Staphylococcus aureus SMITH (GC 4543) (Staphylococcus sp.) | MIC Staphylococcus aureus-SMITH (GC 4543) (Staphylococcus sp.)
++: Anatomical Pathology (Day 10), Kidney [2]
0: Anatomical Pathology (Day 10), Heart [2]

CC(c1ccccc1)C1NC(=O)CNC(=O)C(CO)NC(=O)C(C(O)C2CNC(=N)N2C2OC(CO)C(O)C(O)C2O)NC(=O)C(C(O)C2CNC(=N)N2)NC(=O)C(Cc2ccc3oc(SCC(=O)c4ccccc4)nc3c2)NC1=O (stereo not shown) [Example 48]
16 µg/mL: MIC Coagulase Negative Staphylococcus (GC 4551) (Staphylococcus sp.) | MIC Staphylococcus aureus SMITH (GC 4543) (Staphylococcus sp.) | MIC Staphylococcus aureus-SMITH (GC 4543) (Staphylococcus sp.) | MIC Enterococcus faecalis (GC 4553) (Enterococcus sp.; Enterococcus faecalis (GC 4553), broth dilution, 18 hours at 35° C.) | MIC Enterococcus faecium (GC 2243) (Enterococcus sp.; Enterococcus faecium (GC 2243), broth dilution, 18 hours at 35° C.) | MIC Enterococcus faecalis (GC 4553) (Enterococcus sp.; [4]) | MIC Enterococcus faecium (GC 2243) (Enterococcus sp.; [4]) | MIC Streptococcus agalactiae (GC 4564) (Streptococcus sp.; Streptococcus agalactiae (GC 4564)) | MIC Streptococcus pneumoniae (ATCC 6301) (Streptococcus sp.; Streptococcus pneumoniae (ATCC 6301)) | MIC Streptococcus agalactiae (GC 4564) (Streptococcus sp.) | MIC Streptococcus pneumoniae (ATCC 6301) (Streptococcus sp.)
64 µg/mL: MIC Enterococcus faecalis (ATCC 29212) (Enterococcus sp.; Enterococcus faecalis (ATCC 29212), broth dilution, 18 hours at 35° C.) | MIC Enterococcus faecalis (GC 2242) (Enterococcus sp.; Enterococcus faecalis (GC 2242), broth dilution, 18 hours at 35° C.) | MIC Enterococcus faecalis (GC 2691) (Enterococcus sp.; Enterococcus faecalis (GC 2691), broth dilution, 18 hours at 35° C.) | MIC Enterococcus faecalis (GC 3059) (Enterococcus sp.; Enterococcus faecalis (GC 3059), broth dilution, 18 hours at 35° C.) | MIC Enterococcus faecalis (GC 4552) (Enterococcus sp.; Enterococcus faecalis (GC 4552), broth dilution, 18 hours at 35° C.) | MIC Enterococcus faecalis (GC 4554) (Enterococcus sp.; Enterococcus faecalis (GC 4554), broth dilution, 18 hours at 35° C.) | MIC Enterococcus faecalis (GC 6189) (Enterococcus sp.; Enterococcus faecalis (GC 6189), broth dilution, 18 hours at 35° C.) | MIC Enterococcus faecium (GC 4556) (Enterococcus sp.; Enterococcus faecium (GC 4556), broth dilution, 18 hours at 35° C.) | MIC Enterococcus faecalis (ATCC 29212) (Enterococcus sp.; [4]) | MIC Enterococcus faecalis (GC 2242) (Enterococcus sp.; [4]) | MIC Enterococcus faecalis (GC 2691) (Enterococcus sp.; [4]) | MIC Enterococcus faecalis (GC 3059) (Enterococcus sp.; [4]) | MIC Enterococcus faecalis (GC 4552) (Enterococcus sp.; [4]) | MIC Enterococcus faecalis (GC 4554) (Enterococcus sp.; [4]) | MIC Enterococcus faecalis (GC 6189) (Enterococcus sp.; [4]) | MIC Enterococcus faecium (GC 4556) (Enterococcus sp.; [4])
8 µg/mL: MIC Coagulase Negative Staphylococcus (GC 4548) (Staphylococcus sp.) | MIC Staphylococcus haemolyticus (GC 4546) (Staphylococcus sp.) | MIC Enterococcus avium (GC 4558) (Enterococcus sp.; Enterococcus avium (GC 4558), broth dilution, 18 hours at 35° C.) | MIC Enterococcus avium (GC 4558) (Enterococcus sp.; [4]) | MIC Streptococcus pneumoniae (GC 1894) (Streptococcus sp.; Streptococcus pneumoniae (GC 1894)) | MIC Streptococcus pyogenes (GC 4563) (Streptococcus sp.; Streptococcus pyogenes (GC 4563)) | MIC Streptococcus pneumoniae (GC 1894) (Streptococcus sp.) | MIC Streptococcus pyogenes (GC 4563) (Streptococcus sp.)
32 µg/mL: MIC Streptococcus pneumoniae (GC 4565) (Streptococcus sp.; Streptococcus pneumoniae (GC 4565)) | MIC Streptococcus pneumoniae (GC 4565) (Streptococcus sp.) | MIC Escherichia coli (ATCC 25922) (Escherichia coli [3]) | MIC Escherichia coli (GC 4559) (Escherichia coli [3])
4 µg/mL: MIC Coagulase Negative Staphylococcus (GC 4547) (Staphylococcus sp.) | MIC Coagulase Negative Staphylococcus (GC 4549) (Staphylococcus sp.) | MIC Enterococcus faecium (GC 4557) (Enterococcus sp.; Enterococcus faecium (GC 4557), broth dilution, 18 hours at 35° C.) | MIC Enterococcus faecium (GC 4557) (Enterococcus sp.; [4]) | MIC Escherichia coli (GC 4560) (Escherichia coli [3])
